US20180250261A1, “METHOD FOR TREATING CANCER WITH A STAT3 PATHWAY INHIBITOR AND KINASE INHIBITOR” (BOSTON BIOMEDICAL, INC., priority 2015, published 2018)

Legend:
STK33 = biological target: T1, STK33 (Homo sapiens, UniProt Q9BYT3); assay: immunofluorescence staining of SW480 xenograft tissue, STK33; assay type: in vivo; conditions: nude mice, oral daily, 14 doses, Compound A 100 mg/kg, Compound B 50 mg/kg, FIG. 6B
T1 construct: from tissue; host or cells: human SW480 colon cancer xenograft tumours grown in female nude mice
T1 sequence (Q9BYT3 whole entry): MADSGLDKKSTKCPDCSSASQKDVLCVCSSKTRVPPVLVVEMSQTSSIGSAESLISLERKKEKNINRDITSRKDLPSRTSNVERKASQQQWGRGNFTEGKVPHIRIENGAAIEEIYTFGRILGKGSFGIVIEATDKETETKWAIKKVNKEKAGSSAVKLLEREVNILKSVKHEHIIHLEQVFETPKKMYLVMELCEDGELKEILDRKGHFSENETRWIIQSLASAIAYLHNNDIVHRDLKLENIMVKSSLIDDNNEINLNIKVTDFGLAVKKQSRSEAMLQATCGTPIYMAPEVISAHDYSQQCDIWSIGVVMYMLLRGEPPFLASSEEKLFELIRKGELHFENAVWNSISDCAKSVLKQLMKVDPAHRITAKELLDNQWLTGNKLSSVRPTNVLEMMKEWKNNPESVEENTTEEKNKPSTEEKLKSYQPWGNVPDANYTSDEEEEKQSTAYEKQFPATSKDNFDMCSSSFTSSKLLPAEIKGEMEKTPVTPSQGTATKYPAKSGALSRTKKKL
Procedure: (§1) The effect of a treatment combination of Compound A and Compound B on the levels of various pharmacodynamic (PD) markers for the agents in vivo was studied. A mouse xenograft model of human colon cancer (SW480) was used.
(§2) Levels of STK33 and Nanog were examined using immunofluorescence staining of the xenograft tissue. Female nude mice were inoculated subcutaneously with 8×10^6 human SW480 colon cancer cells. Animals were treated orally daily with vehicle, Compound A (100 mg/kg), Compound B (50 mg/kg), or Compound A and Compound B (100 mg/kg and 50 mg/kg, respectively) for a total of 14 doses. At the end of treatment, the tumors were harvested from euthanized mice. Part of the dissected tumors were fixed overnight in 3.7% neutral buffered formaldehyde at 4° C., and then paraffin embedded, cut to four micron sections, and affixed onto positively charged slides. After being baked and deparaffinized, the slides with tumor or control tissues were incubated in 10mM pH6.0 sodium citrate solution for antigen retrieval at 98° C. […] After being mounted with ProLong mounting medium containing DAPI (Invitrogen), the slides were examined on a Zeiss Axis Imager M2 upright fluorescence microscope with a 20× objective and analyzed with Zen software.

Nanog = assay: immunofluorescence staining of SW480 xenograft tissue, Nanog; assay type: in vivo, human; conditions: nude mice, oral daily, 14 doses, Compound A 100 mg/kg, Compound B 50 mg/kg, FIG. 6B
Procedure: as §1, §2

p-STAT3 = biological target: T2, p-STAT3 (Homo sapiens, UniProt P40763); assay: immunofluorescence staining of SW480 xenograft tissue, p-STAT3; assay type: in vivo; conditions: nude mice, oral daily, 14 doses, Compound A 100 mg/kg, Compound B 50 mg/kg, FIG. 6A
T2 construct: from tissue; host or cells: human SW480 colon cancer xenograft tumours grown in female nude mice
T2 sequence (P40763 whole entry): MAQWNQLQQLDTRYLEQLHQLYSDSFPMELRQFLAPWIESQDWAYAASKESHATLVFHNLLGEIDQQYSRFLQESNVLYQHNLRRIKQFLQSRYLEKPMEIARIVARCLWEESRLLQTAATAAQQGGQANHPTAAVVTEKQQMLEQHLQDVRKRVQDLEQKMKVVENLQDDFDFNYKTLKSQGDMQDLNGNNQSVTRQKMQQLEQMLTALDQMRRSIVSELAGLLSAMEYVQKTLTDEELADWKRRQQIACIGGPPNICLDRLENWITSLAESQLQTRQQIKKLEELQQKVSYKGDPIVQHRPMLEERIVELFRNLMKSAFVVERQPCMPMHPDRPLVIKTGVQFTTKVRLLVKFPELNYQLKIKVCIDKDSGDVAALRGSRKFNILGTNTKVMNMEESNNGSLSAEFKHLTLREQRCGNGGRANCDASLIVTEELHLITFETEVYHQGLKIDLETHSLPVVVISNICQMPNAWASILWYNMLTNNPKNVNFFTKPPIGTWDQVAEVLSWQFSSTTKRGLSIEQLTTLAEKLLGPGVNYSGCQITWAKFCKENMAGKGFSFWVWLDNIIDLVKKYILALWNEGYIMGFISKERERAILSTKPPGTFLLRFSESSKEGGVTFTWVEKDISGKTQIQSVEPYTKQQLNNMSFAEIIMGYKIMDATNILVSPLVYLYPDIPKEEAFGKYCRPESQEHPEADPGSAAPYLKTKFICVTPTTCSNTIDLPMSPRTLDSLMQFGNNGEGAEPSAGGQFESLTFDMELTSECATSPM

STAT3 pathway = conditions: according to U.S. Pat. No. 8,877,803; read-out: STAT3 pathway activity, cellular IC50; cited from earlier work

Row | SMILES | nuclear levels of STK33 in xenograft tissue (STK33) | nuclear levels of Nanog in xenograft tissue (Nanog) | cellular levels of p-STAT3 in xenograft tissue (p-STAT3) | IC50 (STAT3 pathway) | cytoplasmic levels of STK33 in xenograft tissue (STK33) | cytoplasmic levels of Nanog in xenograft tissue (Nanog)
1 | CCN(CC)CCNC(=O)c1c(C)[nH]c(/C=C2\C(=O)Nc3ccc(-c4csc(-c5ccccc5)n4)cc32)c1C [Compound B] | reduced | reduced |  |  |  | 
2 | CC(=O)c1cc2c(o1)C(=O)c1ccccc1C2=O [Compound A, 2-acetylnaphtho[2,3-b]furan-4,9-dione] |  |  | significantly reduced | ~250 nM | reduced | reduced
